For 41 compounds, inhibition results are on record in patent US12398151B2, “Sumo inhibitor compounds and uses thereof” (SUVALENT THERAPEUTICS, INC., priority 2019, dated 2025).

Each structure is given as a SMILES string. Read-outs that look alike come from different tables or passages of the source.

The target of one experiment is T1, SUMO E1 (Homo sapiens, UniProt Q9UBT2).
T1 sequence (Q9UBT2 1-640): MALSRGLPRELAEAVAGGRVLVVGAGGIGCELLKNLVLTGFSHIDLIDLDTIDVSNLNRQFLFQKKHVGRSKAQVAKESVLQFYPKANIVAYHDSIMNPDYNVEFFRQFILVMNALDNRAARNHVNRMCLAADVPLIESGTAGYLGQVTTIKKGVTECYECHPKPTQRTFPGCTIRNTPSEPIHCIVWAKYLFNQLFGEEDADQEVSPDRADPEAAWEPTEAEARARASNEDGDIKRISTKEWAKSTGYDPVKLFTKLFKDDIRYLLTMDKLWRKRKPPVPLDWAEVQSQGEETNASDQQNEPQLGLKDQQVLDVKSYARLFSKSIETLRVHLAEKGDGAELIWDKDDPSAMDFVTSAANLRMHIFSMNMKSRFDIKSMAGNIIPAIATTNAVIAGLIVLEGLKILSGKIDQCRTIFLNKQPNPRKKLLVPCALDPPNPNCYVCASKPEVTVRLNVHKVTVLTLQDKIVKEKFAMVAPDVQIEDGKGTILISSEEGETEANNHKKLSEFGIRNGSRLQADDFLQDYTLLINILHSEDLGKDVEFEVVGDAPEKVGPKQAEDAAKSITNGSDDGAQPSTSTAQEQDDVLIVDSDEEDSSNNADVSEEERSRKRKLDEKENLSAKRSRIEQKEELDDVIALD
T1 sequence (Q9UBE0 1-346 partner): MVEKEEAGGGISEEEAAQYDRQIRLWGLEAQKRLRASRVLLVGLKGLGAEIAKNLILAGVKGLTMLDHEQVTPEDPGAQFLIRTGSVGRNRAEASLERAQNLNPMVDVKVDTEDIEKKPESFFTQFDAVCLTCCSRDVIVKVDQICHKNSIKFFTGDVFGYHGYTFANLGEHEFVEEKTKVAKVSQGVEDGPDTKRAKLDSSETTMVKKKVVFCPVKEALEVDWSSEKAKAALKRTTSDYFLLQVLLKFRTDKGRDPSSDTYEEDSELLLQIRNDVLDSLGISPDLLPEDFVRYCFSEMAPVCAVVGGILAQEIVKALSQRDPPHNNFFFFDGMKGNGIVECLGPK
In words: SUMO E1 inhibition: UBC9-SUMO1 conjugation by SDS gel electrophoresis. The settings on record: read-out: SUMO E1 percent inhibition of adduct formation; for inhibition at 25 µM: 25 uM compound; for inhibition at 10 µM: 10 uM compound; for inhibition at 1 µM: 1 uM compound; for inhibition at 27 µM: 27 uM compound; for inhibition at 9 µM: 9 uM compound, 15 min preincubation. It is filed as biochemical. How it is done: (§1) Compounds are evaluated for their inhibitory effect on activating enzymes (E1) of ubiquitin, SUMO, Nedd8, Urm1, ISG15 or Atg7 using previously reported methods and protocols. One example is in: Allosteric inhibition of ubiquitin-like modifications by a class of inhibitor of SUMO-activating enzyme. Cell Chemical Biology, 26, 1-11, 2019. PMID: 28051857.
(§2) Compounds are tested in the following manner. The compound and SUMO E1 are incubated for a predetermined amount of time. UBC9, SUMO1, and ATP are added to the E1-compound mixture and incubated at 37° C. The reaction is quenched with Laemmli Buffer. The UBC9-SUMO1 conjugation is analyzed via SDS gel electrophoresis. The percent inhibition is measured by the intensity of the UBC9-SUMO1 band compared to the no compound control. Activities are listed as compound concentration (uM), preincubation time of E1 with compound (min), and percent inhibition of adduct formation (%). […]

The next experiment addresses T2, Atg7 (Homo sapiens, UniProt O95352).
T2 sequence (O95352 1-703): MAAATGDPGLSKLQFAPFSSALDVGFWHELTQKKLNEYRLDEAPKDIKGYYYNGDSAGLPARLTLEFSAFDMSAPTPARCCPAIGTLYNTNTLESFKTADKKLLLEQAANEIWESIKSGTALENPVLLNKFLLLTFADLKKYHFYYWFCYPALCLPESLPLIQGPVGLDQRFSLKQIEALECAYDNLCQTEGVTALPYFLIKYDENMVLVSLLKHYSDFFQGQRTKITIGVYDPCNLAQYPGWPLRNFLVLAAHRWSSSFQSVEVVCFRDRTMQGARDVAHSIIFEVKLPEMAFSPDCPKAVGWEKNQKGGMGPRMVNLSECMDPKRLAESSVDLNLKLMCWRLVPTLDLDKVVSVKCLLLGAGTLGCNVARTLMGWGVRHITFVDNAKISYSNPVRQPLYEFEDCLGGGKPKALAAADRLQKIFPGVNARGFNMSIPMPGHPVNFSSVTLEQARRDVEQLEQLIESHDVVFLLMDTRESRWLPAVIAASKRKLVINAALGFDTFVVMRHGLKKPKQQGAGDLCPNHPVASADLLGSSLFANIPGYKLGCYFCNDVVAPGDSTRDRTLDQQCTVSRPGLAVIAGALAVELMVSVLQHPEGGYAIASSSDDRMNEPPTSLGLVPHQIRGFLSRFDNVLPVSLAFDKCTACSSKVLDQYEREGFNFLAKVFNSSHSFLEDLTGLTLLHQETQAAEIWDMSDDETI
The experiment is described as follows: Atg7 activating enzyme (E1) inhibition. It is filed as biochemical. As to conditions: 25 uM compound, 60 min preincubation; read-out: Atg7 percent inhibition of adduct formation. As for the experimental part: as §1, §2

Setting [1] is: 55 min preincubation of E1 with compound.

Usually inhibition stands for the relative decrease from the control value, in per cent.

`C=CC(=O)N1CCc2ccccc2[C@@H]1c1ccccc1` (stereo in doubt) [Compound 10]: the inhibition at 25 µM at SUMO E1 (60 min preincubation) and on Atg7 was < 1% in each case.
Consider `C=CC(=O)N1Cc2ccccc2[C@@H](c2ccccc2)C1` (stereo in doubt) [Compound 11], for which the inhibition at 10 µM on SUMO E1 (60 min preincubation) came to 90%. For the same compound, on Atg7, the inhibition at 25 µM was < 1%.
Consider `C=CC(=O)N1CCc2c(Br)cccc2C1` [Compound 1], for which the inhibition at 25 µM is 50% on SUMO E1 (setting [1]) and < 1% on Atg7.
With `C=CC(=O)N1CCc2ccc(Br)cc2C1` [Compound 2], the inhibition at 25 µM at SUMO E1 (setting [1]) is 50%; at Atg7, < 1%.
Consider `C=CC(=O)N1CCc2cc(Br)ccc2C1` [Compound 3], for which the inhibition at 25 µM at SUMO E1 (60 min preincubation) was 70%; on Atg7, < 1%.
With `C=CC(=O)N1CCc2cc(Br)ccc21` [Compound 4], the inhibition at 25 µM on SUMO E1 (30 min preincubation) was 10%; at Atg7, < 1%.
In the case of `C=CC(=O)N1CCc2ncncc2C1` [Compound 5], the inhibition at 25 µM on SUMO E1 (30 min preincubation) was 10%; on Atg7 it was < 1%.
With `C=CC(=O)N1CCc2cc(-c3ccccc3)ccc2C1` [Compound 6], the inhibition at 25 µM on SUMO E1 (30 min preincubation) and at Atg7 was < 1% in each case.
Regarding `C=CC(=O)N1CCc2cc(Cc3ccccc3)ccc2C1` [Compound 7], the inhibition at 25 µM was 20% at SUMO E1 (30 min preincubation) and < 1% at Atg7.
Turning to `C=CC(=O)N1CCc2cc(Nc3ccccc3)ccc2C1` [Compound 8], the inhibition at 25 µM at SUMO E1 (60 min preincubation) and on Atg7 was < 1% each time.
In the case of `C=CC(=O)N1Cc2ccc(Br)cc2C1` [Compound 9], the inhibition at 25 µM at SUMO E1 (60 min preincubation) and on Atg7 was < 1% throughout.
As to `C=CC(=O)N1CCC2CCCCC2C1` (stereo not drawn) [Compound 12], the inhibition at 25 µM at SUMO E1 (60 min preincubation) and on Atg7 was < 1% throughout.
As for `C=CC(=O)N1Cc2ccccc2C1` [Compound 13], the inhibition at 25 µM at SUMO E1 (60 min preincubation) and on Atg7 was < 1% throughout.
For `C=CC(=O)N1Cc2ccc(N)cc2C1` [Compound 14], the inhibition at 25 µM at SUMO E1 (60 min preincubation) and at Atg7 was < 1% each time.
As to `C=CC(=O)N1Cc2ccc(NC(=O)c3ccc(F)cc3)cc2C1` [Compound 15], the inhibition at 25 µM at SUMO E1 (60 min preincubation) and on Atg7 was < 1% throughout.
Take `C=CC(=O)N1Cc2ccc(NC(=O)c3cccnc3)cc2C1` [Compound 16]: the results for the inhibition at 25 µM at SUMO E1 (60 min preincubation) and at Atg7 were 20% and < 1%, respectively.
Turning to `C=CC(=O)N1Cc2ccc(NS(=O)(=O)c3ccccc3)cc2C1` [Compound 17], the inhibition at 25 µM is 20% at SUMO E1 (60 min preincubation) and < 1% at Atg7.
On to `C=CC(=O)N1CCc2cc(CC3CCOCC3)ccc2C1` [Compound 18], for which the inhibition at 25 µM on SUMO E1 (60 min preincubation) was < 1%; at Atg7, 95%.
As for `C=CC(=O)N1CCc2cc(CC(C)C)ccc2C1` [Compound 19], the inhibition at 25 µM at SUMO E1 (60 min preincubation) is 40%; on Atg7, < 1%.
Turning to `C=CC(=O)N1CCCc2cc(Br)ccc21` [Compound 20], the inhibition at 25 µM at SUMO E1 (60 min preincubation) and on Atg7 was < 1% throughout.
For `C=CC(=O)N1CCc2cccc(Br)c2C1` [Compound 21], the inhibition at 25 µM at SUMO E1 (60 min preincubation) and on Atg7 was < 1% in each case.
`C=CC(=O)N1CCc2cc(Cc3ccc(OC)cc3)ccc2C1` [Compound 23]: the inhibition at 25 µM at SUMO E1 (60 min preincubation) and at Atg7 was < 1% each time.
On to `C=CC(=O)N1CCc2cc(Oc3ccccc3)ccc2C1` [Compound 24], for which the inhibition at 25 µM is 50% on SUMO E1 (60 min preincubation) and < 1% on Atg7.
Consider `CCC(=O)Nc1ccc2cc(Br)ccc2c1` [Compound 25], for which the inhibition at 25 µM on SUMO E1 (60 min preincubation) and on Atg7 was < 1% each time.
As for `C=CC(=O)N1Cc2ccccc2C[C@H]1c1ccccc1` [Compound 26], the inhibition at 25 µM at SUMO E1 (60 min preincubation) was 10%; at Atg7 it was < 1%.
Take `C=CC(=O)N1Cc2ccccc2[C@@H](C(=O)OC)C1` [Compound 27]: the inhibition at 25 µM at SUMO E1 (60 min preincubation) and at Atg7 was < 1% in each case.
With `C=CC(=O)N1Cc2ccccc2[C@@H](c2ccccc2)C1` [Compound 28], the inhibition at 25 µM at SUMO E1 (60 min preincubation) was < 1%.
As to `C=CC(=O)N1Cc2ccc(Br)cc2[C@@H](c2ccccc2)C1` [Compound 29], the inhibition at 25 µM is 90% at SUMO E1 (60 min preincubation) and < 1% at Atg7.
Regarding `C=CC(=O)N1Cc2ccc(Oc3ccccc3)cc2[C@@H](c2ccccc2)C1` [Compound 30], the inhibition at 25 µM on SUMO E1 (60 min preincubation) and on Atg7 was < 1% throughout.
`CCOC(=O)/C=C/CN1Cc2ccccc2[C@@H](c2ccccc2)C1` [Compound 33]: on SUMO E1 (60 min preincubation), the inhibition at 25 µM was < 1%.
As for `C=CC(=O)Oc1cccc([C@H]2CN(C(=O)C=C)Cc3ccccc32)c1` [Compound 44], the inhibition at 18 µM on SUMO E1 (18 uM compound, 30 min preincubation) turned out to be 50%.
As for `C=CC(=O)Oc1cccc([C@H]2CN(C(C)=O)Cc3ccccc32)c1` [Compound 50], the inhibition at 10 µM on SUMO E1 (60 min preincubation) was found to be 50%.
Turning to `C=CC(=O)N1Cc2sc(C)cc2[C@@H](c2ccccc2)C1` [Compound 81], the inhibition at 10 µM at SUMO E1 (30 min preincubation) came to 30%.
As for `C=CC(=O)N1Cc2sc(Cl)cc2[C@@H](C2CCCCC2)C1` [Compound 124], the inhibition at 1 µM on SUMO E1 (30 min preincubation) came to 100%.
`C=CC(=O)N1Cc2sc(Cl)cc2[C@@H](C2CCCC2)C1` [Compound 125]: on SUMO E1 (30 min preincubation), the inhibition at 27 µM is 100%.
For `C=CC(=O)N1Cc2sc(Cl)cc2[C@@H](Cc2ccccc2)C1` [Compound 126], the inhibition at 27 µM on SUMO E1 (20 min preincubation) is 40%.
`Cc1ccccc1[C@H]1CN(C(=O)/C=C/CBr)Cc2sc(Cl)cc21` [Compound 131]: the inhibition at 9 µM at SUMO E1 is < 1%.
Turning to `C=CC(=O)N1Cc2sc(Cl)cc2[C@@H](c2ccccc2CC)C1` [Compound 144], on SUMO E1 (30 min preincubation), the inhibition at 27 µM amounted to 95%.
With `C=CC(=O)N1Cc2sc(Cl)cc2[C@@H](c2cccc(C)c2C)C1` [Compound 149], the inhibition at 1 µM at SUMO E1 (30 min preincubation) came to 90%.
On to `C=CC(=O)N1Cc2sc(Cl)cc2[C@@H](c2ccccc2-c2ccccc2C(F)(F)F)C1` [Compound 156], for which the inhibition at 9 µM at SUMO E1 was < 1%.
Regarding `C=CC(=O)N1Cc2sc(Cl)cc2[C@@H](c2ccccc2Br)C1` [Compound 158], the inhibition at 16 µM at SUMO E1 (16 uM compound, 45 min preincubation) is < 1%.
